Experiments:
Assay type in all cases: cell-based
human NE transporter = biological target: T1, human NE transporter (Homo sapiens, UniProt P23975); assay: Inhibition of [3H]NE uptake in cells expressing the recombinant human NE transporter; details: MDCK cells expressing the NE transporter; for inhibition at 1 µM: 1 μM compound, read-out: Uptake inh. % at 1 μM NE
T1 construct: expressed in transfected cells; host or cells: MDCK cells
Protocol: (§1) The ability of the 1-heteroaryl-3-azabicyclo[3.1.0.]hexane of the invention for inhibiting transport of norepinephrine (NE) and/or dopamine (DA) and/or serotonin (5-HT) were evaluated using cell lines (such as the HEK 293 cell line) that stably express recombinant human NE, DA, and 5-HT transporters, respectively. The techniques for stably transfecting mammalian cell lines with neurotransmitter transporters and measuring the effects of drugs on amine uptake have been described in the literature (e.g., Gu, H., et al. J. Biol. Chem. 269:7124-7130, 1994; Eshleman A J, J Pharmacol Exp Ther 289:877-885, 1999) and well known to those skilled in the art.
(§2) A basic technique for measuring the ability of a compound to inhibit [^3H]NE, DA, and 5-HT uptake in cell lines recombinantly expressing human transporters has been described (Eshleman, et al., 1999). In brief, cell suspensions (HEK 293 cells expressing the 5-HT transporter; MDCK cells expressing the NE transporter, and CHO-K1 cells expressing the DA transporter, respectively) can be prepared for assay by removing the medium from cells grown on tissue culture dishes, then washing the plates with buffered medium. Cells can then be gently scraped from the plates and cell clusters separated by trituration with a pipette for 5-10 aspiration/ejection cycles. To these cell suspensions were added test drugs (final concentrations generally from 0.01-5 μM) and Tris/Hepes buffer, pH 7.1 (also containing 120 mM NaCl, 1.2 mM CaICl2, 1.2 mM MgSO4, 5 mM D-glucose, and 1 mM ascorbic acid). Following a preincubation of the isolated cells at 25° C., either [^3H]DA, [^3H]5-HT, or [^3H]NE was added and the incubation continued an additional 10 minutes. Radiolabelled neurotransmitter uptake was terminated by vacuum filtration and washing through Whatman glass fiber filters (GF/C), and the radioactivity retained on the filters was measured by liquid scintillation spectrometry. Specific uptake was defined as the difference in uptake observed in the absence and presence of a large molar excess of nomifensine, desipramine, or fluoxetine (for [^3H]DA, [^3H]NE or [^3H]5-HT, respectively].
(§3) The results of these assays are shown in Table 2, below, which indicates, for each of the exemplary compounds, the structure of the substituent, and levels of observed uptake inhibition percentage for each of the indicated neurotransmitters at a fixed concentration of compound, or the IC50 value, defined as that concentration of compound necessary to inhibit uptake by 50%. These are standard terms known to those skilled in the art.

human DA transporter = biological target: T2, human DA transporter (Homo sapiens, UniProt Q01959); assay: Inhibition of [3H]DA uptake in cells expressing the recombinant human DA transporter; details: CHO-K1 cells expressing the DA transporter; for inhibition at 1 µM: 1 μM compound, read-out: Uptake inh. % at 1 μM DA
T2 construct: expressed in transfected cells; host or cells: CHO-K1 cells
T2 sequence (Q01959 whole entry): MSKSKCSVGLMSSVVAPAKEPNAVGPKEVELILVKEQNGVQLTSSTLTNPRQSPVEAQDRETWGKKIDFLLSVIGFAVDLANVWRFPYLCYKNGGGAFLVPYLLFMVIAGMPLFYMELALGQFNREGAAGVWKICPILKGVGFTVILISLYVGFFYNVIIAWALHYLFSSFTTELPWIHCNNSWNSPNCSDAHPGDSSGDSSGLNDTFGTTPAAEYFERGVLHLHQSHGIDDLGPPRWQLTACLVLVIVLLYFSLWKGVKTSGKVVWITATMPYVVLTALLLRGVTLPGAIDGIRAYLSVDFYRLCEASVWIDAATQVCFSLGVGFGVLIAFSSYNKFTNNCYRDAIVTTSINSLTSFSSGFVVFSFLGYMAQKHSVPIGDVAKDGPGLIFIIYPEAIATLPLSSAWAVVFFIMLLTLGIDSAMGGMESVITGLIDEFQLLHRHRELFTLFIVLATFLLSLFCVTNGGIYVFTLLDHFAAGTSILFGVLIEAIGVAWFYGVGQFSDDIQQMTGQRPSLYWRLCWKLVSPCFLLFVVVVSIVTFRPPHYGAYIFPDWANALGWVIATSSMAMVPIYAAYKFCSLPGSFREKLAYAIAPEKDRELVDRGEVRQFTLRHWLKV
Protocol: as §1, §2, §3

human 5-HT transporter = biological target: T3, human 5-HT transporter (Homo sapiens, UniProt P31645); assay: Inhibition of [3H]5-HT uptake in cells expressing the recombinant human 5-HT transporter; details: HEK 293 cells expressing the 5-HT transporter; for inhibition at 1 µM: HEK293, 1 μM compound, read-out: Uptake inh. % at 1 μM 5-HT
T3 construct: expressed in transfected cells; host or cells: HEK 293 cells
T3 sequence (P31645 whole entry): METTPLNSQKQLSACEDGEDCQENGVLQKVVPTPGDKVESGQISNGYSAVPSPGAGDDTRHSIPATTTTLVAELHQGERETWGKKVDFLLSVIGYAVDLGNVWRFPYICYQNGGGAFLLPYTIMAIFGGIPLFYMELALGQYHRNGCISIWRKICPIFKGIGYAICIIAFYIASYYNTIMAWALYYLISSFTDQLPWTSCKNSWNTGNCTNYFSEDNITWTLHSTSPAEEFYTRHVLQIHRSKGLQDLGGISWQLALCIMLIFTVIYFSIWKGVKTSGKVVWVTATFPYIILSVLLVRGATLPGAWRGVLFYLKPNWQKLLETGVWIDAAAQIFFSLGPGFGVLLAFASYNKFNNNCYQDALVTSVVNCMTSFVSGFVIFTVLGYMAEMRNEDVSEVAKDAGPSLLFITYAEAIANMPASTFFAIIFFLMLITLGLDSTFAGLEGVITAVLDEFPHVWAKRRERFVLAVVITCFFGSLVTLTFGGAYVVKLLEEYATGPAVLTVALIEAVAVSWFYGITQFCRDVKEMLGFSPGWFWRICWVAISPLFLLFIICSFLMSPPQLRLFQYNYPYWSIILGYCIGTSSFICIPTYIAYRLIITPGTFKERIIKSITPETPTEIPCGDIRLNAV
Protocol: as §1, §2, §3

T1 sequence (P23975 whole entry): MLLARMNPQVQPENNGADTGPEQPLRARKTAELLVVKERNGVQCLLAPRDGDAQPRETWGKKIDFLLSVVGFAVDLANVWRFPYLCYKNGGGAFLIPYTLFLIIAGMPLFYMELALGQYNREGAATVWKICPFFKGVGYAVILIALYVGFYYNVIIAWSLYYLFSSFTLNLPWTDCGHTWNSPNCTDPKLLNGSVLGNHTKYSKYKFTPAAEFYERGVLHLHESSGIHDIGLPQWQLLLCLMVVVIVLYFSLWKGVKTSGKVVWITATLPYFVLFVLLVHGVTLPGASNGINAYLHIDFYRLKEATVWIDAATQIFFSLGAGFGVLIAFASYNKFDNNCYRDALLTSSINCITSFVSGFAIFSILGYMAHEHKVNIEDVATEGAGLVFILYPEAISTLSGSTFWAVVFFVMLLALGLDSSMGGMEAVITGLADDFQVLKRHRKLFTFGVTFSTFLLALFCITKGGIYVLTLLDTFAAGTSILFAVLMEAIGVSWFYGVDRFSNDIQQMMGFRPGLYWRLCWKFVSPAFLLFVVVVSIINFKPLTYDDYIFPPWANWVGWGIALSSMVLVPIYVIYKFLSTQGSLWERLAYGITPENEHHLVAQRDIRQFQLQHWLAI

Compound | IC50 (human NE transporter) | IC50 (human DA transporter) | IC50 (human 5-HT transporter) | inhibition at 1 µM (human NE transporter) | inhibition at 1 µM (human DA transporter) | inhibition at 1 µM (human 5-HT transporter)
CN1CC2CC2(c2cc3ccccc3o2)C1 (stereo not drawn) | 400 nM | 630 nM | 340 nM |  |  | 
c1ccc2c(C34CNCC3C4)coc2c1 (stereo not drawn) | 82 nM | 770 nM | 188 nM | 77% | 63% | 57%
CN1CC2CC2(c2coc3ccccc23)C1 (stereo not drawn) | 138 nM | 475 nM | 1450 nM | 82% | 67% | 45%
Cc1ccc(C23CNCC2C3)s1 (stereo not drawn) |  |  |  | 59% | 20% | 35%
c1ccc2ncc(C34CNCC3C4)cc2c1 (stereo not drawn) |  |  |  | 64% | 10% | 14%
CN1CC2CC2(c2cc3ccccc3n2C)C1 (stereo not drawn) |  |  |  | 35% | 19% | 64%
CCN1CC2CC2(c2cc3ccccc3n2C)C1 (stereo not drawn) |  |  |  | 29% | 32% | 65%
Clc1ccc2scc(C34CNCC3C4)c2c1 (stereo not drawn) |  |  |  | 50% | 13% | 18%
CN1CC2CC2(c2csc3ccc(Cl)cc23)C1 (stereo not drawn) |  |  |  | 39% | 1% | 50%
CN1CC2CC2(c2ccc3c(ccn3C)c2)C1 (stereo not drawn) | 186 nM | 811 nM | 154 nM | 53% | 45% | 71%
CCN1CC2CC2(c2ccc3c(ccn3C)c2)C1 (stereo not drawn) | 138 nM | 215 nM | 308 nM | 39% | 65% | 59%
CC(C)N1CC2CC2(c2cc3ccccc3n2C)C1 (stereo not drawn) |  |  |  | 13% | 7% | 83%
c1ccc2sc(C34CNCC3C4)nc2c1 (stereo not drawn) |  |  |  | 72% | 5% | 7%
c1ccc2sc(C34CNCC3C4)cc2c1 (stereo not drawn) | 20 nM | 82 nM | 88 nM | 90% | 91% | 66%
CN1CC2CC2(c2cc3ccccc3s2)C1 (stereo not drawn) | 60 nM | 98 nM | 34 nM | 71% | 88% | 92%
c1ccc2sc([C@]34CNC[C@H]3C4)cc2c1 | 14 nM | 52 nM | 193 nM | 97% | 90% | 96%
c1ccc2sc([C@@]34CNC[C@H]3C4)cc2c1 | 99 nM | 149 nM | 481 nM | 84% | 90% | 76%
CN1C[C@H]2C[C@@]2(c2cc3ccccc3s2)C1 | 71 nM | 224 nM | 54 nM | 89% | 82% | 99%
CN1C[C@H]2C[C@]2(c2cc3ccccc3s2)C1 | 107 nM | 195 nM | 263 nM | 75% | 83% | 89%
Fc1ccc2cc(C34CNCC3C4)sc2c1 (stereo not drawn) |  |  |  | 98% | 99% | 100%
CN1CC2CC2(c2cc3ccc(F)cc3s2)C1 (stereo not drawn) |  |  |  | 88% | 94% | 99%
c1cnc2ccc(C34CNCC3C4)cc2c1 (stereo not drawn) |  |  |  | 68% | 17% | 63%
CN1CC2CC2(c2ccc3ncccc3c2)C1 (stereo not drawn) |  |  |  | 13% | 12% | 93%
Fc1ccc2sc(C34CNCC3C4)cc2c1 (stereo not drawn) |  |  |  | 91% | 78% | 98%
CN1CC2CC2(c2cc3cc(F)ccc3s2)C1 (stereo not drawn) |  |  |  | 70% | 63% | 94%
